Molecules are shown by their SMILES. The source made the active and inactive calls.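 Rule for the calls: active = tumour findings in long-term animal cancer tests in more than one sex, species or organ; inactive = no tumour finding and more than one negative test.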

This series in a line: DSSTox (CPDBAS) Carcinogenic Potency Database Summary MultiCellCall Results. As to conditions: animal carcinogenicity bioassays, multi-cell call summary. In a few lines:
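Summary call drawn from chronic long-term cancer bioassays in rats, mice, hamsters, dogs and nonhuman primates, using the most positive result per sex-species. Score: multispecies=50, multisex=30, multisite=20, summed for combinations.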
`O=C(O)c1cc(Oc2ccc(C(F)(F)F)cc2Cl)ccc1[N+](=O)[O-]`: the outcome was “active; multisite active; multisex active”. For `O=C(O)CCCc1ccc(N(CCCl)CCCl)cc1` the value was “active; multisite active; multisex active; multispecies active”; for `NCCS(=O)(=O)O`, “inactive; multisex inactive”.

`O=C/C(Cl)=C(/Cl)C(=O)O`: the outcome was “inactive; multisex inactive”. For `O=[N+]([O-])c1ccc(Oc2ccc(Cl)cc2Cl)cc1`, the outcome was “active; multisite active; multisex active; multispecies active”. Then `ClC(Cl)C(Cl)Cl`, with “active; multisex active”; and `Cc1cc(C)c(N=Nc2c(O)c(S(=O)(=O)O)cc3cc(S(=O)(=O)O)ccc23)cc1C`, with “active; multisex active”. For the compound `Cc1cc(Cc2ccc(N)c(C)c2)ccc1N`, the outcome is “active; multisite active; multisex active”. `O[C@@H]([C@H](O)[C@@H](O)CBr)[C@@H](O)CBr`: the outcome was “active; multisite active; multisex active; multispecies active”. In the case of `Nc1ncc([N+](=O)[O-])s1`, the outcome was “active; multisite active”. Then `COc1c2occc2cc2ccc(=O)oc12`, with “active; multisite active”; and `O=C1CN(/N=C/c2ccc([N+](=O)[O-])o2)C(=O)N1`, with “active; multisite active; multisex active; multispecies active”.

As for `CS(=O)(=O)OCCCNCCCOS(C)(=O)=O`, the outcome is “inactive; multisex inactive; multispecies inactive”. Then `CN(N)C=O`, with “active; multisite active; multisex active; multispecies active”; and `Cc1cc(O)c2c(c1)C(=O)c1cc(O)cc(O)c1C2=O`, with “inactive; multisex inactive; multispecies inactive”; and `COc1ccc(N)c(OC)c1`, with “inactive; multisex inactive; multispecies inactive”.

For the compound `C/C=C/c1ccc2c(c1)OCO2`, the outcome was “inactive; multisex inactive”. Turning to `O=NN1CCOCC1`, the outcome is “active; multisite active; multisex active; multispecies active”.

Take `CN(CCCO)N=O`: the outcome is “active; multisite active; multisex active”. For `O=S1(=O)CC=CC1` the value was “inactive; multisex inactive; multispecies inactive”; for `ClC(Cl)Cl`, “active; multisite active; multisex active; multispecies active”.

In the case of `CC(COc1ccc(C(C)(C)C)cc1)OS(=O)OCCCl` (stereo not given), the outcome is “active; multispecies active”. On to `CCCCC(CC)COC(=O)CCCCC(=O)OCC(CC)CCCC` (stereo not given), for which the outcome is “active; multisex active”. Then `CCN(N=O)C(=O)NCCO`, with “active; multisite active; multisex active; multispecies active”; and `Nc1ncn([C@@H]2O[C@H](CO)[C@@H](O)[C@H]2O)c(=O)n1`, with “active; multisite active; multisex active; multispecies active”; and `COc1cc(NC(=O)C(N=Nc2ccc(-c3ccc(N=NC(C(C)=O)C(=O)Nc4cc(OC)c(Cl)cc4OC)c(Cl)c3)cc2Cl)C(C)=O)c(OC)cc1Cl` (stereo not given), with “inactive; multispecies inactive”. In the case of `Cc1cc(=O)n(-c2ccccc2)n1C`, the outcome was “active; multisite active”. Then `CC(C)(c1ccc(O)cc1)c1ccc(O)cc1`, with “inactive; multisex inactive; multispecies inactive”; and `COc1cc(-c2ccc(N)c(OC)c2)ccc1N`, with “active; multisite active; multisex active; multispecies active”. For `Nc1ccc([N+](=O)[O-])cc1N` the value was “inactive; multisex inactive; multispecies inactive”; for `NNC(=O)c1ccncc1`, “active; multisite active; multisex active; multispecies active”; for `O=S(=O)(O)c1ccc(N=Nc2cc(S(=O)(=O)O)c3ccccc3c2O)c2ccccc12`, “inactive; multisex inactive; multispecies inactive”. For `CN(C)c1ccc(N=NS(=O)(=O)O)cc1` the value was “inactive; multisex inactive; multispecies inactive”; for `NC(=O)c1ccncc1`, “inactive; multisex inactive”. `Nc1ccc(N=Nc2ccccc2)c(N)n1`: the outcome was “active; multisite active; multisex active; multispecies active”. Regarding `Cc1ccc(S(=O)(=O)OCCN(C)N=O)cc1`, the outcome was “active; multisite active; multisex active”.

Regarding `O=Cc1ccco1`, the outcome is “active; multisex active; multispecies active”. Consider `NC(=O)Cc1c([O-])on[n+]1Cc1ccccc1`, for which the outcome is “active; multisex active; multispecies active”. Consider `CCCCC(C)(O)C/C=C/[C@H]1[C@H](O)CC(=O)[C@@H]1CCCCCCC(=O)OC` (stereo not given in full), for which the outcome is “inactive; multisex inactive; multispecies inactive”.

For `CCC[CH2][Sn]([CH2]CCC)([CH2]CCC)[O][Sn]([CH2]CCC)([CH2]CCC)[CH2]CCC`, the outcome was “inactive; multisex inactive”. As for `O=C(Nc1ccc2c(c1)Cc1ccccc1-2)C(F)(F)F`, the outcome was “active; multisite active”. For `CN(C)c1ccc(C(=N)c2ccc(N(C)C)cc2)cc1` the value was “active; multisex active; multispecies active”; for `CC(C)Oc1ccc(Nc2ccccc2)cc1`, “inactive; multisex inactive”. `O=C([O-])C(=O)O.O=C([O-])C(=O)O.[K+].[K+].[O]=[Ti]`: the outcome was “inactive; multisex inactive”. As for `Brc1cc(Br)c2cccnc2c1`, the outcome is “inactive; multisex inactive”.

`CC(=O)OC[C@]12C[C@H](OC(=O)CC(C)C)C(C)=C[C@H]1O[C@@H]1[C@H](O)[C@@H](OC(C)=O)[C@@]2(C)C12CO2` (stereo not given in full): the outcome was “active; multisite active”. Then `C1N2CN3CN1CN(C2)C3`, with “inactive; multisex inactive; multispecies inactive”; and `O=[N+]([O-])c1ccc(-c2cnc3ccccn23)o1`, with “active; multisite active; multisex active; multispecies active”; and `CC(=O)C(N=Nc1ccc(Cl)cc1Cl)C(=O)Nc1ccc(-c2ccc(NC(=O)C(N=Nc3ccc(Cl)cc3Cl)C(C)=O)c(C)c2)cc1C` (stereo not given), with “inactive; multispecies inactive”. For `CCC(Cl)CCC(Cl)C(Cl)CC(Cl)C(Cl)C(Cl)CCl` (stereo not given) the value was “active; multisite active; multisex active; multispecies active”; for `Cc1ccc(S(=O)(=O)NC(=O)NN2CCCCCC2)cc1`, “inactive; multisex inactive; multispecies inactive”; for `C=CCc1ccc(OC)c(OC)c1`, “active; multisite active; multisex active; multispecies active”. For `CC(O)CN(C)N=O` (stereo not given), the outcome was “active; multisite active; multisex active”. For `CCOC(=O)N(CC)N=O` the value was “active; multisite active”; for `CCN(CC)N=O`, “active; multisite active; multisex active; multispecies active”; for `CN(C)C(=S)[S-].CN(C)C(=S)[S-].[Cu+2]`, “inactive; multisex inactive”. As to `ClCC1CO1` (stereo not given), the outcome was “active; multisex active”. With `C=CCN(CC(O)CO)N=O` (stereo not given), the outcome was “active; multisite active”. In the case of `Cc1cnc(NC(=O)C2=C(O)c3ccccc3S(=O)(=O)N2C)s1`, the outcome is “inactive; multisex inactive”. For `CN(C)CCN(Cc1ccco1)c1ccccn1` the value was “inactive; multisex inactive”; for `CC(=O)Oc1ccccc1C(=O)O`, “inactive; multisex inactive; multispecies inactive”. For `Cc1ccc(N)cc1Cl` the value was “inactive; multisex inactive; multispecies inactive”. Then `Nc1ccc(Cl)cc1N`, with “active; multisite active; multisex active; multispecies active”; and `Clc1ccc(-c2ccc(Cl)c(Cl)c2Cl)c(Cl)c1Cl`, with “active; multisite active; multisex active”.

On to `O=S(=O)(Oc1ccc(Cl)cc1)c1ccc(Cl)cc1`, for which the outcome was “inactive; multisex inactive”. Consider `C1CCOC1`, for which the outcome was “active; multisite active; multisex active; multispecies active”.

With `NC(=O)NNc1ccccc1`, the outcome was “active; multisex active”. For `C=C1C[C@]23C[C@@]1(O)CC[C@H]2[C@@]12C=C[C@H](O)[C@@](C)(C(=O)O1)[C@H]2[C@@H]3C(=O)O` the value was “inactive; multisex inactive”; for `CC[N+](=O)[O-]`, “inactive; multisex inactive”. Then `O=C(O)c1[nH]n(-c2ccc(S(=O)(=O)O)cc2)c(=O)c1N=Nc1ccc(S(=O)(=O)O)cc1`, with “inactive; multisex inactive; multispecies inactive”; and `NC(N)=NC(N)=NCCc1ccccc1`, with “inactive; multisex inactive; multispecies inactive”.

For the compound `COc1ccc(C(=O)Nc2c(Cl)cncc2Cl)cc1OC1CCCC1`, the outcome was “active; multisex active”. On to `C/C=C1/C[C@@H](C)[C@](O)(CO)C(=O)OCC2=CC[N+]3([O-])CC[C@@H](OC1=O)[C@@H]23` (stereo not given in full), for which the outcome was “active; multisex active”. Then `ClC(Cl)=C(c1ccc(Cl)cc1)c1ccc(Cl)cc1`, with “active; multisex active; multispecies active”; and `COc1ccc(N)c(C)c1`, with “active; multisex active”; and `NNc1ccccc1`, with “active; multisex active”. For `Nc1ccccc1C(=O)O` the value was “inactive; multisex inactive; multispecies inactive”; for `Cc1ncc[nH]1`, “active; multisite active; multisex active; multispecies active”; for `CCOC(=O)[C@]1(c2ccccc2)CCC=C[C@H]1N(C)C`, “inactive; multisex inactive; multispecies inactive”. On to `O=[N+]([O-])c1ccc2nc[nH]c2c1`, for which the outcome is “active; multisex active”. For `O=C1NS(=O)(=O)c2ccccc21` the value was “inactive; multisex inactive; multispecies inactive”; for `CCCCC(CC)COC(=O)c1ccccc1C(=O)OCC(CC)CCCC` (stereo not given), “active; multisex active; multispecies active”; for `CCCCCCCCCCCCN(C)N=O`, “active; multisite active; multisex active”.

Regarding `N#Cc1ccc(C2CCCc3cncn32)cc1` (stereo not given), the outcome is “inactive; multisex inactive”.

Regarding `C=Cc1cccc[n+]1[O-]`, the outcome is “inactive; multispecies inactive”.

Source of the values: PubChem BioAssay AID1205 (EPA DSSTox, 2008).
